Where two headings read alike, the source gives them in different places.
Key:
[1] = Pharmacokinetic experiment on SD rats (iv and intragastric); assay type: in vivo; details: Sprague-Dawley, rat, plasma; for Cmax: read-out: Peak plasma concentration Cmax
Experimental: Pharmacokinetic experiment on SD rats: in this experiment, two administration modes: oral intragastric administration and tail vein injection were selected. Oral administration was performed at a dose of 5 mg/kg using the compounds of the present disclosure. The administration volume was 10 mL/kg. Prior to use, an appropriate amount of the drug was accurately weighed and first dissolved in dimethyl sulfoxide (DMSO). An appropriate amount of Solutol and H2O were then added in sequence at a final volume ratio of 5% DMSO, 10% Solutol and 85% H2O. The mixture was sonicated and vortexed to homogeneity to prepare a clear drug solution with a concentration of 0.5 mg/mL. Intravenous administration was performed at a dose of 1 mg/kg using the compounds of the present disclosure. The administration volume was 10 mL/kg. Prior to use, an appropriate amount of each drug was accurately weighed separately, followed by the sequential addition of a suitable volume of PEG 400 and Saline at a final volume ratio of 20% PEG 400 to 80% Saline. The mixture was sonicated and vortexed to homogeneity to prepare a clear drug solution with a concentration of 0.1 mg/mL.
6 SD rats, each with body weight of 180-220 g, were randomly grouped into 2 groups. The animals were fasted overnight with free access to water. For the first group, intragastric administration was performed, and 200 μL of blood was collected from the orbital venous plexus into anticoagulant tubes at 15 min, 30 min, 1 h, 2 h, 4 h, 6 h, 8 h and 24 h post-administration, respectively. Within one hour, the blood samples were centrifuged at 10000 rpm for 20 m at 4° C. (preserved on an ice box prior to centrifugation). The upper supernatant, i.e., plasma, was harvested and stored in a refrigerator at −20° C. for subsequent LC-MS/MS analysis. For the second group, intravenous administration was conducted, and 200 μL of blood was collected from the orbital venous plexus into anticoagulant tubes at 5 min, 15 min, 30 min, 1 h, 2 h, 4 h, 8 h and 24 h post-administration, respectively. Within one hour, the blood samples were centrifuged at 10000 rpm for 20 min at […] (preserved on an ice box prior to centrifugation). The upper supernatant, i.e., plasma, was harvested and stored in a refrigerator at −20° C. for subsequent LC-MS/MS analysis.

IRAK4 = molecular target: T1, IRAK4 (Homo sapiens, UniProt Q9NWZ3); assay: IRAK4 protein degradation in THP1 cells (Western blot); assay type: cell-based; details: THP-1 cells, 24 h
T1 construct: Effect of the Compounds on IRAK4 Protein Degradation in THP1 Cells; endogenous in cells; host or cells: THP-1 cells
T1 sequence (Q9NWZ3 1-460): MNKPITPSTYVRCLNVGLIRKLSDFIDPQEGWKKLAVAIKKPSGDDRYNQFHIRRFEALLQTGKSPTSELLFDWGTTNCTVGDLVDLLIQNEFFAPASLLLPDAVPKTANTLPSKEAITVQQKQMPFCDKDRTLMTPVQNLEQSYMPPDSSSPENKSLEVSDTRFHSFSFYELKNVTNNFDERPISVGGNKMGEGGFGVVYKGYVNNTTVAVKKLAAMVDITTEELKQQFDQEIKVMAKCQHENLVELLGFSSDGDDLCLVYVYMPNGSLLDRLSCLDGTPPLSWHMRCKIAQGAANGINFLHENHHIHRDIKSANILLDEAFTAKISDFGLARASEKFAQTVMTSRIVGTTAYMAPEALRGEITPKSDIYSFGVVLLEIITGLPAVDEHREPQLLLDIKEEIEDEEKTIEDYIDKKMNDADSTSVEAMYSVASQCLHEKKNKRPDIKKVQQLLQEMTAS
Procedure, shortened: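 THP-1 cells (2×10^5/well) were treated with 5-fold serial compound dilutions for 24 h at 37 °C, then lysed with proteasome/phosphatase inhibitors. IRAK4 was detected by Western blot with chemiluminescence and semi-quantified by densitometry. DC50 came from the concentration–response.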

SMILES | AUC ([1]; iv, 1.00 mg/kg) [ng·h/mL] | AUC(0-inf) ([1]; iv, 1.00 mg/kg) [ng·h/mL] | Cmax ([1]; iv, 1.00 mg/kg) [ng/mL] | DC50 (IRAK4) [nM] | bioavailability ([1]; po, ig 5.00 mg/kg vs iv 1.00 mg/kg, read-out: Oral bioavailability Fobs) [%] | AUC ([1]; po, ig, 5.00 mg/kg) [ng·h/mL] | AUC(0-inf) ([1]; po, ig, 5.00 mg/kg) [ng·h/mL] | Cmax ([1]; po, ig, 5.00 mg/kg) [ng/mL]
CN(C)c1cc2nn([C@H]3CC[C@H](CN4CCC(n5cc6c(F)cc(N7CCC(=O)NC7=O)cc6n5)CC4)CC3)cc2cc1NC(=O)c1cnn2cccnc12 [TM-174] | 1480 ± 167 | 1700 ± 254 | 272 ± 34.5 | 1.24 |  |  |  | 
CN(C)c1cc2nn([C@H]3CC[C@H](CN4C[C@@H](F)[C@@H](n5cc6cc(C7CCC(=O)NC7=O)c(F)cc6n5)C4)CC3)cc2cc1NC(=O)c1cnn2cccnc12 (stereo partly drawn) [TM-240] | 2630 ± 172 | 2670 ± 175 | 652 ± 32 | 2.61 |  |  |  | 
CN(C)c1cc2nn([C@H]3CC[C@H](CN4C[C@@H](F)[C@H](n5cc6cc(C7CCC(=O)NC7=O)c(F)cc6n5)C4)CC3)cc2cc1NC(=O)c1cnn2cccnc12 (stereo partly drawn) [TM-245] | 2910 ± 62.8 | 2980 ± 114 | 554 ± 60.7 | 1.41 |  |  |  | 
CN(C)c1cc2nn([C@H]3CC[C@H](CN4C[C@@H](n5cc6cc(N7CCC(=O)NC7=O)ccc6n5)[C@@H](F)C4)CC3)cc2cc1NC(=O)c1cnn2cccnc12 [TM-205] |  |  |  | 1.56 |  |  |  | 
CN(C)c1cc2nn([C@H]3CC[C@H](CN4CC[C@@H](n5cc6cc(C7CCC(=O)NC7=O)c(F)cc6n5)[C@@H](F)C4)CC3)cc2cc1NC(=O)c1cnn2cccnc12 (stereo partly drawn) [TM-135] | 1170 ± 260 | 1220 ± 333 | 790 ± 65.9 | 1.23 | 33.2 | 1900 ± 565 | 2030 ± 529 | 433 ± 198
CN(C)c1cc2nn([C@H]3CC[C@H](CN4C[C@@H](F)[C@H](n5cc6cc(C7CCC(=O)NC7=O)ccc6n5)C4)CC3)cc2cc1NC(=O)c1cnn2cccnc12 (stereo partly drawn) [TM-244] | 2010 ± 361 | 2440 ± 585 | 784 ± 126 | 3.21 |  |  |  | 
CN(C)c1cc2nn([C@H]3CC[C@H](CN4C[C@@H](n5cc6cc(C7CCC(=O)NC7=O)c(F)cc6n5)[C@@H](F)C4)CC3)cc2cc1NC(=O)c1cnn2cccnc12 (stereo partly drawn) [TM-241] | 4140 ± 1290 | 4220 ± 1300 | 920 ± 124 | 11.7 |  |  |  | 
CN(C)c1cc2nn([C@H]3CC[C@H](CN4C[C@H](F)[C@@H](n5cc6cc(C7CCC(=O)NC7=O)c(F)cc6n5)C4)CC3)cc2cc1NC(=O)c1cnn2cccnc12 (stereo partly drawn) [TM-249] | 2280 ± 190 | 2400 ± 354 | 613 ± 39.8 | 2.38 |  |  |  | 
